Laboratory results published in patent US20130165641A1, “6,11-BRIDGED BIARYL MACROLIDES” (Enanta Pharmaceuticals, Inc., priority 2007, published 2013).
≈ marks a conversion by molar mass, not a printed value.

Test system: MRSA
Experiment: MIC by micro-dilution method, MRSA isolates
Type: cell-based, Staphylococcus aureus
Settings: compounds of Formula XVI; for MIC MRSA 7662: MRSA isolate 7662; for MIC MRSA 33591: MRSA isolate 33591
Experimental: Susceptibility tests can be used to quantitatively measure the in vitro activity of an antimicrobial agent against a given bacterial isolate. Compounds are tested for in vitro antibacterial activity by a micro-dilution method. Minimal Inhibitory Concentration (MIC) is determined in 96 well microtiter plates utilizing the appropriate broth medium for the observed bacterial isolates. […] The diluted compounds (2 μl/well) are then transferred into sterile, uninoculated medium (0.2 mL) by use of a 96 fixed tip-pipetting station. The inoculum for each bacterial strain is standardized to approximately 5×10^5 CFU/mL by optical comparison to a 0.5 McFarland turbidity standard. The plates are inoculated with 10 μl/well of adjusted bacterial inoculum. The 96 well plates are covered and incubated at 35+/−2° C. for 24 hours in ambient air environment. Following incubation, plate wells are visually examined by Optical Density measurement for the presence of growth (turbidity). The lowest concentration of an antimicrobial agent at which no visible growth occurs is defined as the MIC.
All in vitro testing follows the guidelines described in the Approved Standards M7-A7 protocol, published by the Clinical Laboratory Standards Institute (CLSI).

CCC1OC(=O)C(C)(F)C(=O)C(C)C(OC2OC(C)CC(N(C)C)C2O)C2(C)CC(C)C(=NC(C)=O)C(C)C(OCC(=NOCc3ccc(-c4cccc(N)n4)cn3)CO2)C1(C)O (stereo not drawn) [Example 74]
MIC MRSA 7662: 8 µg/mL (≈ 9.04 µM)
MIC MRSA 33591: 8 µg/mL (≈ 9.04 µM)

CCC(=O)N=C1C(C)CC2(C)OCC(=NOCc3ccc(-c4cccc(N)n4)cn3)COC(C1C)C(C)(O)C(CC)OC(=O)C(C)(F)C(=O)C(C)C2OC1OC(C)CC(N(C)C)C1O (stereo not drawn) [Example 75]
MIC MRSA 7662: 4 µg/mL (≈ 4.45 µM)
MIC MRSA 33591: 4 µg/mL (≈ 4.45 µM)

CCCC(=O)N=C1C(C)CC2(C)OCC(=NOCc3ccc(-c4cccc(N)n4)cn3)COC(C1C)C(C)(O)C(CC)OC(=O)C(C)(F)C(=O)C(C)C2OC1OC(C)CC(N(C)C)C1O (stereo not drawn) [Example 76]
MIC MRSA 7662: 4 µg/mL (≈ 4.38 µM)
MIC MRSA 33591: 4 µg/mL (≈ 4.38 µM)

CCC1OC(=O)C(C)(F)C(=O)C(C)C(OC2OC(C)CC(N(C)C)C2O)C2(C)CC(C)C(=NC(=O)C3CC3)C(C)C(OCC(=NOCc3ccc(-c4cccc(N)n4)cn3)CO2)C1(C)O (stereo not drawn) [Example 77]
MIC MRSA 7662: 8 µg/mL (≈ 8.78 µM)
MIC MRSA 33591: 8 µg/mL (≈ 8.78 µM)

CCC1OC(=O)C(C)(F)C(=O)C(C)C(OC2OC(C)CC(N(C)C)C2O)C2(C)CC(C)C(=NC(C)=O)C(C)C(OCC(=NOCc3ccc(-n4ccc(N)n4)nc3)CO2)C1(C)O (stereo not drawn) [Example 78]
MIC MRSA 7662: 8 µg/mL (≈ 9.15 µM)
MIC MRSA 33591: 8 µg/mL (≈ 9.15 µM)

CCC(=O)N=C1C(C)CC2(C)OCC(=NOCc3ccc(-n4ccc(N)n4)nc3)COC(C1C)C(C)(O)C(CC)OC(=O)C(C)(F)C(=O)C(C)C2OC1OC(C)CC(N(C)C)C1O (stereo not drawn) [Example 79]
MIC MRSA 7662: 2 µg/mL (≈ 2.25 µM)
MIC MRSA 33591: 4 µg/mL (≈ 4.5 µM)

CCC1OC(=O)C(C)(F)C(=O)C(C)C(OC2OC(C)CC(N(C)C)C2O)C2(C)CC(C)C(=NC(=O)C(C)C)C(C)C(OCC(=NOCc3ccc(-c4cccc(N)n4)cn3)CO2)C1(C)O (stereo not drawn) [Example 80]
MIC MRSA 7662: 4 µg/mL (≈ 4.38 µM)
MIC MRSA 33591: 4 µg/mL (≈ 4.38 µM)

CCC1OC(=O)C(C)(F)C(=O)C(C)C(OC2OC(C)CC(N(C)C)C2O)C2(C)CC(C)C(=NC(C)=O)C(C)C(OCC(=NOCc3ccc(-n4ccc(N)n4)cc3)CO2)C1(C)O (stereo not drawn) [Example 81]
MIC MRSA 7662: 4 µg/mL (≈ 4.58 µM)
MIC MRSA 33591: 4 µg/mL (≈ 4.58 µM)

CCC1OC(=O)C(C)(F)C(=O)C(C)C(OC2OC(C)CC(N(C)C)C2O)C2(C)CC(C)C(=NC(C)=O)C(C)C(OCC(=NOCc3ccc(-n4ccc(N)n4)cn3)CO2)C1(C)O (stereo not drawn) [Example 82]
MIC MRSA 7662: 4 µg/mL (≈ 4.58 µM)
MIC MRSA 33591: 8 µg/mL (≈ 9.15 µM)

CCC(=O)N=C1C(C)CC2(C)OCC(=NOCc3ccc(-n4ccc(N)n4)cc3)COC(C1C)C(C)(O)C(CC)OC(=O)C(C)C(=O)C(C)C2OC1OC(C)CC(N(C)C)C1O (stereo not drawn) [Example 83]
MIC MRSA 7662: 2 µg/mL (≈ 2.3 µM)
MIC MRSA 33591: 4 µg/mL (≈ 4.6 µM)

CCC1OC(=O)C(C)C(=O)C(C)C(OC2OC(C)CC(N(C)C)C2O)C2(C)CC(C)C(=NC(C)=O)C(C)C(OCC(=NOCc3ccc(-n4ccc(N)n4)cc3F)CO2)C1(C)O (stereo not drawn) [Example 84]
MIC MRSA 7662: 8 µg/mL (≈ 9.16 µM)
MIC MRSA 33591: 8 µg/mL (≈ 9.16 µM)

CCC1OC(=O)C(C)(F)C(=O)C(C)C(OC2OC(C)CC(N(C)C)C2O)C2(C)CC(C)C(=NC(C)=O)C(C)C(OCC(=NOCc3ccc(-n4ccc(N)n4)cc3F)CO2)C1(C)O (stereo not drawn) [Example 85]
MIC MRSA 7662: 4 µg/mL (≈ 4.49 µM)
MIC MRSA 33591: 8 µg/mL (≈ 8.98 µM)

CCC1OC(=O)C(C)(F)C(=O)C(C)C(OC2OC(C)CC(N(C)C)C2O)C2(C)CC(C)C(=NC(=O)C(C)C)C(C)C(OCC(=NOCc3ccc(-n4ccc(N)n4)nc3)CO2)C1(C)O (stereo not drawn) [Example 86]
MIC MRSA 7662: 4 µg/mL (≈ 4.43 µM)
MIC MRSA 33591: 4 µg/mL (≈ 4.43 µM)

CCC1OC(=O)C(C)(F)C(=O)C(C)C(OC2OC(C)CC(N(C)C)C2O)C2(C)CC(C)C(=NC(=O)C(C)C)C(C)C(OCC(=NOCc3ccc(-n4ccc(N)n4)cn3)CO2)C1(C)O (stereo not drawn) [Example 87]
MIC MRSA 7662: 2 µg/mL (≈ 2.22 µM)
MIC MRSA 33591: 4 µg/mL (≈ 4.43 µM)

CCC1OC(=O)C(C)C(=O)C(C)C(OC2OC(C)CC(N(C)C)C2O)C2(C)CC(C)C(=NC(C)=O)C(C)C(OCC(=NOCc3ccc(-n4ccc(N)n4)cc3Cl)CO2)C1(C)O (stereo not drawn) [Example 88]
MIC MRSA 7662: 8 µg/mL (≈ 8.99 µM)
MIC MRSA 33591: 8 µg/mL (≈ 8.99 µM)

CCC1OC(=O)C(C)(F)C(=O)C(C)C(OC2OC(C)CC(N(C)C)C2O)C2(C)CC(C)C(=NC(C)=O)C(C)C(OCC(=NOCc3ccc(-n4ccc(N)n4)cc3Cl)CO2)C1(C)O (stereo not drawn) [Example 89]
MIC MRSA 7662: 4 µg/mL (≈ 4.41 µM)
MIC MRSA 33591: 4 µg/mL (≈ 4.41 µM)

CCC1OC(=O)C(C)C(=O)C(C)C(OC2OC(C)CC(N(C)C)C2O)C2(C)CC(C)C(=NC(=O)C(C)C)C(C)C(OCC(=NOCc3ccc(-n4ccc(N)n4)cc3)CO2)C1(C)O (stereo not drawn) [Example 90]
MIC MRSA 7662: 8 µg/mL (≈ 9.06 µM)
MIC MRSA 33591: 8 µg/mL (≈ 9.06 µM)

CCC(=O)N=C1C(C)CC2(C)OCC(=NOCc3ccc(-n4ccc(N)n4)cn3)COC(C1C)C(C)(O)C(CC)OC(=O)C(C)(F)C(=O)C(C)C2OC1OC(C)CC(N(C)C)C1O (stereo not drawn) [Example 92]
MIC MRSA 7662: 2 µg/mL (≈ 2.25 µM)
MIC MRSA 33591: 4 µg/mL (≈ 4.5 µM)

CCC1OC(=O)C(C)(F)C(=O)C(C)C(OC2OC(C)CC(N(C)C)C2O)C2(C)CC(C)C(=NC(=O)C3CC3)C(C)C(OCC(=NOCc3ccc(-n4ccc(N)n4)cc3)CO2)C1(C)O (stereo not drawn) [Example 93]
MIC MRSA 7662: 8 µg/mL (≈ 8.9 µM)
MIC MRSA 33591: 8 µg/mL (≈ 8.9 µM)

CCC1OC(=O)C(C)(F)C(=O)C(C)C(OC2OC(C)CC(N(C)C)C2O)C2(C)CC(C)C(=NC(=O)C3CC3)C(C)C(OCC(=NOCc3ccc(-n4ccc(N)n4)cn3)CO2)C1(C)O (stereo not drawn) [Example 94]
MIC MRSA 7662: 8 µg/mL (≈ 8.89 µM)
MIC MRSA 33591: 8 µg/mL (≈ 8.89 µM)

CCC1OC(=O)C(C)(F)C(=O)C(C)C(OC2OC(C)CC(N(C)C)C2O)C2(C)CC(C)C(=NC(C)=O)C(C)C(OCC(=NOCc3ccc(-n4ccc(N)n4)c(F)c3)CO2)C1(C)O (stereo not drawn) [Example 95]
MIC MRSA 7662: 8 µg/mL (≈ 8.98 µM)
MIC MRSA 33591: 8 µg/mL (≈ 8.98 µM)

C=Cc1cn(-c2ccc(CON=C3COC4C(C)C(=NC(C)=O)C(C)CC(C)(OC3)C(OC3OC(C)CC(N(C)C)C3O)C(C)C(=O)C(C)(F)C(=O)OC(CC)C4(C)O)nc2)nc1N (stereo not drawn) [Example 96]
MIC MRSA 7662: 8 µg/mL (≈ 8.89 µM)
MIC MRSA 33591: 8 µg/mL (≈ 8.89 µM)

CCC1OC(=O)C(C)(F)C(=O)C(C)C(OC2OC(C)CC(N(C)C)C2O)C2(C)CC(C)C(=NC(C)=O)C(C)C(OCC(=NOCc3cnc(-c4cccc(N)n4)s3)CO2)C1(C)O (stereo not drawn) [Example 97]
MIC MRSA 7662: 8 µg/mL (≈ 8.98 µM)
MIC MRSA 33591: 8 µg/mL (≈ 8.98 µM)

CCC1OC(=O)C(C)C(=O)C(C)C(OC2OC(C)CC(N(C)C)C2O)C2(C)CC(C)C(=NC(=O)C(C)C)C(C)C(OCC(=NOCc3ccc(-n4ccc(N)n4)cc3F)CO2)C1(C)O (stereo not drawn) [Example 98]
MIC MRSA 7662: 8 µg/mL (≈ 8.88 µM)
MIC MRSA 33591: 8 µg/mL (≈ 8.88 µM)

CC[C@H]1OC(=O)[C@@](C)(F)C(=O)[C@H](C)[C@@H](O[C@@H]2O[C@H](C)C[C@H](N(C)C)[C@H]2O)[C@@]2(C)C[C@@H](C)C(=NC(C)=O)[C@H](C)[C@@H](OC/C(=N\OCc3ccc(-n4ccc(N)n4)cc3OC)CO2)[C@]1(C)O [Example 99]
MIC MRSA 7662: 8 µg/mL (≈ 8.86 µM)
MIC MRSA 33591: 8 µg/mL (≈ 8.86 µM)

CC[C@H]1OC(=O)[C@@](C)(F)C(=O)[C@H](C)[C@@H](O[C@@H]2O[C@H](C)C[C@H](N(C)C)[C@H]2O)[C@@]2(C)C[C@@H](C)C(=NC(=O)C(C)C)[C@H](C)[C@@H](OC/C(=N\OCc3ncc(-c4cccc(N)n4)cn3)CO2)[C@]1(C)O [Example 100]
MIC MRSA 7662: 8 µg/mL (≈ 8.75 µM)
MIC MRSA 33591: 8 µg/mL (≈ 8.75 µM)

CC[C@H]1OC(=O)[C@@](C)(F)C(=O)[C@H](C)[C@@H](O[C@@H]2O[C@H](C)C[C@H](N(C)C)[C@H]2O)[C@@]2(C)C[C@@H](C)C(=NC(C)=O)[C@H](C)[C@@H](OC/C(=N\OCc3ccc(-c4nc(N)cs4)cn3)CO2)[C@]1(C)O [Example 101]
MIC MRSA 7662: 2 µg/mL (≈ 2.24 µM)
MIC MRSA 33591: 4 µg/mL (≈ 4.49 µM)

CC[C@H]1OC(=O)[C@@](C)(F)C(=O)[C@H](C)[C@@H](O[C@@H]2O[C@H](C)C[C@H](N(C)C)[C@H]2O)[C@@]2(C)C[C@@H](C)C(=NC(C)=O)[C@H](C)[C@@H](OC/C(=N\OCc3ccc(-c4nccc(N)n4)cn3)CO2)[C@]1(C)O [Example 102]
MIC MRSA 7662: 8 µg/mL (≈ 9.03 µM)
MIC MRSA 33591: 8 µg/mL (≈ 9.03 µM)

CC[C@H]1OC(=O)[C@@](C)(F)C(=O)[C@H](C)[C@@H](O[C@@H]2O[C@H](C)C[C@H](N(C)C)[C@H]2O)[C@@]2(C)C[C@@H](C)C(=NC(C)=O)[C@H](C)[C@@H](OC/C(=N\OCc3cnc(-c4cccc(N)n4)cn3)CO2)[C@]1(C)O [Example 103]
MIC MRSA 7662: 8 µg/mL (≈ 9.03 µM)
MIC MRSA 33591: 8 µg/mL (≈ 9.03 µM)

CC[C@H]1OC(=O)[C@@](C)(F)C(=O)[C@H](C)[C@@H](O[C@@H]2O[C@H](C)C[C@H](N(C)C)[C@H]2O)[C@@]2(C)C[C@@H](C)C(=NC(C)=O)[C@H](C)[C@@H](OC/C(=N\OCc3ccc(-c4csc(N)n4)cn3)CO2)[C@]1(C)O [Example 104]
MIC MRSA 7662: 8 µg/mL (≈ 8.98 µM)
MIC MRSA 33591: 8 µg/mL (≈ 8.98 µM)
